Test results published in patent US9890142B2, “PDE4 inhibitor” (Meiji Seika Pharma Co., Ltd., priority 2013, dated 2018).

System: PDE4
Assay: Evaluation of PDE4 inhibition (scintillation proximity assay)
Format: biochemical
Details: inhibition rate relative to control, test compound at 1 μM
Method in brief: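 PDE4 was incubated 120 min at room temperature with [3H]-cAMP and compound in 50 mM Tris-HCl pH 7.5, 8.3 mM MgCl2, 1.7 mM EDTA, 0.3 mg/mL BSA. Product captured on ZnSO4-containing YSi-SPA beads and counted; inhibition calculated against DMSO control after no-enzyme blank subtraction.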

SMILES	PDE4 inhibitory activity (1 μM (%)) [%]
C[C@H]1CNCCN1c1nc2c(C#N)c(Cl)cc(-c3nccs3)c2o1 [Example 143, (S)-5-Chloro-4-cyano-2-(2-methylpiperazin-1-yl)-7-(thiazol-2-yl)benzoxazole]	94
Cc1nc(-c2cc(Cl)cc3nc(N4CCNC[C@@H]4C)oc23)cs1 [Example 69, (S)-5-Chloro-2-(2-methylpiperazin-1-yl)-7-(2-methylthiazol-4-yl)benzoxazole]	65
C[C@H]1CNCCN1c1nc2cc(Cl)cc(-c3ccccc3)c2o1 [Example 19, (S)-5-Chloro-2-(2-methylpiperazin-1-yl)-7-phenylbenzoxazole]	76
CCc1cc(Cl)cc2nc(N3CCNC[C@H]3C)oc12 [Example 174, (R)-5-Chloro-7-ethyl-2-(2-methylpiperazin-1-yl)benzoxazole]	21
C[C@H]1CNCCN1c1nc2cc(Cl)cc(-c3ccc(Cl)cn3)c2o1 [Example 58, (S)-5-Chloro-7-(5-chloropyridin-2-yl)-2-(2-methylpiperazin-1-yl)benzoxazole]	77
CCc1cc(Cl)cc2nc(N3CCNC[C@@H]3C)oc12 [Example 8, (S)-5-Chloro-7-ethyl-2-(2-methylpiperazin-1-yl)benzoxazole]	79
C[C@H]1CNCCN1c1nc2cc(F)c(C(F)(F)F)c(-c3nccs3)c2o1 [Example 144, (S)-5-Fluoro-2-(2-methylpiperazin-1-yl)-7-(thiazol-2-yl)-6-(trifluoromethyl)benzoxazole]	41
C[C@H]1CNCCN1c1nc2cc(Cl)cc(-c3cccnc3)c2o1 [Example 42, (S)-5-Chloro-2-(2-methylpiperazin-1-yl)-7-(pyridin-3-yl)benzoxazole]	66
C[C@H]1CNCCN1c1nc2c(F)c(Cl)cc(-c3ccccn3)c2o1 [Example 128, (S)-5-Chloro-4-fluoro-2-(2-methylpiperazin-1-yl)-7-(pyridin-2-yl)benzoxazole]	79
C[C@H]1CNCCN1c1nc2cc(Cl)cc(-c3cccs3)c2o1 [Example 18, (S)-5-Chloro-2-(2-methylpiperazin-1-yl)-7-(thiophen-2-yl)benzoxazole]	76
C[C@H]1CNCCN1c1nc2cc(Cl)cc(-c3ccon3)c2o1 [Example 108, (S)-5-Chloro-7-(isoxazol-3-yl)-2-(2-methylpiperazin-1-yl)benzoxazole]	66
COc1c(Cl)cc(-c2ccccn2)c2oc(N3CCNC[C@@H]3C)nc12 [Example 153, (S)-5-Chloro-4-methoxy-2-(2-methylpiperazin-1-yl)-7-(pyridin-2-yl)benzoxazole]	93
C[C@H]1CNCCN1c1nc2c(I)c(Cl)cc(-c3ccccn3)c2o1 [Example 146, (S)-5-Chloro-4-iodo-2-(2-methylpiperazin-1-yl)-7-(pyridin-2-yl)benzoxazole]	95
C[C@H]1CNCCN1c1nc2cc(Cl)cc(-c3nccn3C)c2o1 [Example 49, (S)-5-Chloro-7-(1-methyl-1H-imidazol-2-yl)-2-(2-methylpiperazin-1-yl)-benzoxazole]	17
C[C@H]1CNCCN1c1nc2cc(Cl)cc(-n3nccn3)c2o1 [Example 45, (S)-5-Chloro-2-(2-methylpiperazin-1-yl)-7-(2H-1,2,3-triazol-2-yl)benzoxazole]	87
C[C@H]1CNCCN1c1nc2cc(Cl)cc(-c3ncco3)c2o1 [Example 34, (S)-5-Chloro-2-(2-methylpiperazin-1-yl)-7-(oxazol-2-yl)benzoxazole]	89
Cc1c(Cl)cc2nc(N3CCNC[C@@H]3C)oc2c1-n1cccn1 [Example 139, (S)-5-Chloro-6-methyl-2-(2-methylpiperazin-1-yl)-7-(1H-pyrazol-1-yl)benzoxazole]	39
C[C@H]1CNCCN1c1nc2cc(Cl)cc(-c3cccc(F)n3)c2o1 [Example 60, (S)-5-Chloro-7-(6-fluoropyridin-2-yl)-2-(2-methylpiperazin-1-yl)benzoxazole]	63
Cc1c(Cl)cc2nc(N3CCNC[C@@H]3C)oc2c1-c1nccs1 [Example 138, (S)-5-Chloro-6-methyl-2-(2-methylpiperazin-1-yl)-7-(thiazol-2-yl)benzoxazole]	86
C[C@H]1CNCCN1c1nc2cc(C(F)(F)F)cc(-c3ccccn3)c2o1 [Example 125, (S)-2-(2-Methylpiperazin-1-yl)-7-(pyridin-2-yl)-5-(trifluoromethyl)benzoxazole]	91
C[C@H]1CNCCN1c1nc2cc(Cl)cc(-c3ncc(Cl)s3)c2o1 [Example 74, (S)-5-Chloro-7-(5-chlorothiazol-2-yl)-2-(2-methylpiperazin-1-yl)benzoxazole]	83
C[C@H]1CNCCN1c1nc2cc(Cl)cc(-c3ncccc3F)c2o1 [Example 61, (S)-5-Chloro-7-(3-fluoropyridin-2-yl)-2-(2-methylpiperazin-1-yl)benzoxazole]	81
C[C@H]1CNCCN1c1nc2c(F)c(F)cc(-c3ccccn3)c2o1 [Example 89, (S)-4,5-Difluoro-2-(2-methylpiperazin-1-yl)-7-(pyridin-2-yl)benzoxazole]	88
C[C@H]1CNCCN1c1nc2cc(Cl)cc(NC3CCCC3)c2o1 [Example 24, (S)-5-Chloro-7-(cyclopentylamino)-2-(2-methylpiperazin-1-yl)benzoxazole]	27
C[C@@H]1CNCCN1c1nc2c(-c3ccco3)cc(Cl)cc2o1 [Example 165, (R)-6-Chloro-4-(furan-2-yl)-2-(2-methylpiperazin-1-yl)benzoxazole]	31
C[C@H]1CN(c2nc3c(OC(F)(F)F)c(Cl)cc(-c4nccs4)c3o2)CCN1 [Example 177, (S)-5-Chloro-2-(3-methylpiperazin-1-yl)-7-(thiazol-2-yl)-4-(trifluoromethoxy)benzoxazole]	93
C[C@H]1CNCCN1c1nc2cc(Cl)cc(N3CCOCC3)c2o1 [Example 21, (S)-5-Chloro-2-(2-methylpiperazin-1-yl)-7-(morpholin-1-yl)benzoxazole]	59
C[C@H]1CNCCN1c1nc2cc(Cl)cc(CC3CCCCC3)c2o1 [Example 51, (S)-5-Chloro-7-(cyclohexylmethyl)-2-(2-methylpiperazin-1-yl)-benzoxazole]	12
C[C@H]1CNCCN1c1nc2cc(Cl)cc(-c3ncc[nH]3)c2o1 [Example 50, (S)-5-Chloro-7-(1H-imidazol-2-yl)-2-(2-methylpiperazin-1-yl)benzoxazole]	62
